Results published in patent US20210253562A1, “ACYLSUFONAMIDE COMPOUNDS USEFUL AS EP3 RECEPTOR ANTAGONISTS” (Janssen Pharmaceutica NV, priority 2018, published 2021).
Read-outs that look alike come from different tables or passages of the source.

Columns and labels:
[1] = target: T1, EP3 membrane (EP3 receptor) (Homo sapiens, UniProt P43115); assay: [3H]-PGE2 binding; EP3 competition binding (SPA)
T1 construct: purchased Millipore HTS092M
T1 sequence (P43115 1-390): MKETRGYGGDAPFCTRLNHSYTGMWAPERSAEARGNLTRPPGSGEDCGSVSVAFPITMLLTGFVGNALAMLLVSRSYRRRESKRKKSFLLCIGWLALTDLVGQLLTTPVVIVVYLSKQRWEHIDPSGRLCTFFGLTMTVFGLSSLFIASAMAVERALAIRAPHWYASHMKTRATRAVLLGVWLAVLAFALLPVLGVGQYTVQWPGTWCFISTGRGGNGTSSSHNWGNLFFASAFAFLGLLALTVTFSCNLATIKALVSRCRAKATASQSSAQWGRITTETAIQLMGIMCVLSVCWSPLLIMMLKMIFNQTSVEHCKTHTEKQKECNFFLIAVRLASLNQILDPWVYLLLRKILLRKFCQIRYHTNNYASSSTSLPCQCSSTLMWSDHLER
Description: Biological Example 1: [3H]-PGE2 Binding
EP3 competition binding was determined using the following materials and experimental conditions: • Beads=Perkin Elmer RPNQ0001 • [3H]PGE2=Perkin Elmer NET428025UC • 384-well plate=Perkin Elmer 6007290 • EP3 membrane=Millipore HTS092M • Membrane concentration=2 μg/well • Beads concentration=0.25 mg/well • [3H]-PGE2=2 nM; DMSO—0.1% • Binding buffer=50 mM Tris, 10 mM MgCl2, 1 mM EDTA, PH 7.4.
The reaction system was prepared by mixing 5 μl of unlabeled compound; 5 μl of diluted [3H]-PGE2; 5 μl of diluted membrane; and 15 μl of SPA beads dissolved in binding buffer (adding in the following sequence: Unlabeled compound, [3H]-PGE2, Membrane and Beads).
The binding buffer was removed from refrigeration (@ 4° C.) and allowed to warm to room temperature. Test compound (@ stock concentration of […] in DMSO) was serial dilutes (1:3) with 100% DMSO using Echo plate. Diluted test compound (30 nL) was dispensed to the 384-well assay plate (using Echo 550 Labcyte System). To each well was then added assay buffer (5 μl) and each well was spun. Beads were weighed out, dissolved in assay buffer to a concentration of 0.25 mg/15 μl. Original membrane was diluted with assay buffer to a concentration of 2 μg/5 μl. Original [3H]-PGE2 with diluted with assay buffer to a concentration of 12 nM. To each test well were then added diluted [3H]-PGE2 (5 μl), diluted membrane (5 μl), and dissolved beads (15 μl). The plate was equilibrated at room temperature on a plate shaker for 2 hours and then read with a TOPCOUNT scintillation plate reader. Results were analyzed using a Prism program with non-linear regression, one-site fit for Ki.

[2] = target: T2, CHO cells over-expressing the EP3 receptor (Homo sapiens, UniProt P43115); assay: CHO cell cAMP assay; EP3 cAMP antagonist dose response (sulprostone reference), HTRF; assay type: cell-based; details: sulprostone 700 nM (EC80) and FSK 2 μM (EC70); read-out: CHO_cAMP IC50
T2 construct: expressed in transfected cells; host or cells: CHO cells
T2 sequence (P43115 1-390): T1 sequence (P43115 1-390)
Description: Biological Example 2: CHO Cell cAMP Assay
This assay monitored the cAMP generation in CHO cells over-expressing the EP3 receptor in the presence or absence of antagonist stimulated with Forskolin (FSK, CAS No. 66428-89-5) and a known EP3 Agonist (sulprostone, CAS No. 60325-46-4). For detection, a homogeneous competitive immunoassay (Time Resolved Fluorescence Energy Transfer (hTR-FRET)) was used.
Cells (6K cells per well) were plated in Poly-D-Lysine coated plates the day before the assay was to be run and were incubated at 37° C. One hour before the assay the media was removed and replaced with assay buffer (500 mL HBSS (+Ca)+2.5 mL 1M HEPES+6.66 mL 7.5% BSA) (starved at 37° C.). At the start of the assay the buffer was removed from the cells and replaced with buffer containing test compound(s). Sulprostone at an EC80 dose (700 nM) and FSK at an EC70 dose (2 μM) were added to initiate the reaction (37° C. for 30 minutes).
FSK increases cAMP production and sulprostone decreases cAMP production produced by FSK. In this assay, EP3 antagonists will increase the cAMP to the level of cAMP generated by FSK alone.
The reaction was terminated with the addition of cAMP detection reagents (labeled cAMP and labeled cAMP antibody in lysis buffer (HTRF reagent, which utilizes a cryptate-labeled anti-cAMP and d2-labeled cAMP-d2 is an HTRF acceptor fluorophore)). Approximately one hour later the plates were read on an Envision (Perkin Elmer) in HTRF mode. Well results were calculated based on a ratio of counts at 665 nm and 615 nm (data output was a calculation of the ratio: (read @665 nm/read @ 615 nm)*1000. For test compounds dosed serially, well results were converted to nM cAMP using a cAMP standard run on each plate. nM cAMP from a set of wells dosed with test compound(s) were plotted. nM cAMP was calculated for each well from a standard curve located on each plate (P1-12 and P13-24) by first calculating the slope and deriving the intercept(b):
[formula] NScAMP_s tan dard_cruve=m(nM cAMP_s tan dard_curve)+b
NSP, NSN, NSsample were converted to nM cAMP using the following equation: […]
IC50 values were determined from a […] (Hill equation) of a single 11-point compound dosing. A best-fit curve was determined by the minimum sum of squares method plotting cAMP produced vs compound concentration.

Ki [1]	IC50 [2]	Ki ([1]; unit nM)	Compound
58 nM	330 nM	–	O=C(C/C=C1\CCCc2cnn(Cc3ccc(Cl)cc3Cl)c21)NS(=O)(=O)c1nc2ccccc2s1 [Compound #21]
215 nM	750 nM	–	COc1ccc(Cn2ncc3c2/C(=C(\F)CNC(=O)NS(=O)(=O)c2cc(Cl)c(Cl)s2)CCC3)cn1 [Compound #141, (Z)-4,5-dichloro-N-((2-fluoro-2-(1-((6-methoxypyridin-3-yl)methyl)-1,4,5,6-tetrahydro-7H-indazol-7-ylidene)ethyl)carbamoyl)thiophene-2-sulfonamide]
–	6 nM	0.4 nM	O=C(NC/C=C1\CCCc2cnn(Cc3cnc(-c4ccccc4)nc3)c21)NS(=O)(=O)c1cc(Cl)c(Cl)s1 [Compound #138, (E)-4,5-dichloro-N-((2-(1-((2-phenylpyrimidin-5-yl)methyl)-1,4,5,6-tetrahydro-7H-indazol-7-ylidene)ethyl)carbamoyl)thiophene-2-sulfonamide]
3 nM	11 nM	–	O=C(NS(=O)(=O)c1cc(Cl)c(Cl)s1)OC/C(F)=C1\CCCc2cnn(Cc3ccc(Cl)cc3Cl)c21 [Compound #34, (Z)-2-(1-(2,4-dichlorobenzyl)-1,4,5,6-tetrahydro-7H-indazol-7-ylidene)-2-fluoroethyl ((4,5-dichlorothiophen-2-yl)sulfonyl)carbamate]
542 nM	2800 nM	–	O=C(NS(=O)(=O)c1cc(Cl)c(Cl)s1)OC/C(F)=C1/CCCc2cnn(Cc3ccc(Cl)cc3Cl)c21 [Compound #35, (E)-2-(1-(2,4-dichlorobenzyl)-1,4,5,6-tetrahydro-7H-indazol-7-ylidene)-2-fluoroethyl ((4,5-dichlorothiophen-2-yl)sulfonyl)carbamate]
18 nM	34 nM	–	O=C(NC/C(F)=C1\CCCc2cnn(Cc3ccc(Cl)cc3Cl)c21)NS(=O)(=O)c1cccc(Cl)c1 [Compound #91, (Z)-3-chloro-N-((2-(1-(2,4-dichlorobenzyl)-1,4,5,6-tetrahydro-7H-indazol-7-ylidene)-2-fluoroethyl)carbamoyl)benzenesulfonamide]
94 nM	349 nM	–	COc1ccc(Cl)cc1S(=O)(=O)NC(=O)NC/C(F)=C1\CCCc2cnn(Cc3ccc(C(F)(F)F)cc3)c21 [Compound #131, (Z)-5-chloro-N-((2-fluoro-2-(1-(4-(trifluoromethyl)benzyl)-1,4,5,6-tetrahydro-7H-indazol-7-ylidene)ethyl)carbamoyl)-2-methoxybenzenesulfonamide]
220 nM	488 nM	–	O=C(NC/C(F)=C1/CCc2cnn(-c3ccc(C(F)(F)F)cc3)c21)NS(=O)(=O)c1cc(Cl)c(Cl)s1 [Compound #137, (E)-4,5-dichloro-N-((2-fluoro-2-(1-(4-(trifluoromethyl)phenyl)-4,5-dihydrocyclopenta[c]pyrazol-6(1H)-ylidene)ethyl)carbamoyl)thiophene-2-sulfonamide]
26 nM	160 nM	–	COc1ccc(Cl)cc1S(=O)(=O)NC(=O)NC/C(F)=C1\CCCc2cnn(Cc3ccc(Cl)cc3Cl)c21 [Compound #89, (Z)-5-chloro-N-((2-(1-(2,4-dichlorobenzyl)-1,4,5,6-tetrahydro-7H-indazol-7-ylidene)-2-fluoroethyl)carbamoyl)-2-methoxybenzenesulfonamide]
612 nM	–	–	CC(C)n1cc(S(=O)(=O)NC(=O)NC/C(F)=C2\CCCc3cnn(Cc4ccc(Cl)cc4Cl)c32)cn1 [Compound #170, (Z)—N-((2-(1-(2,4-dichlorobenzyl)-1,4,5,6-tetrahydro-7H-indazol-7-ylidene)-2-fluoroethyl)carbamoyl)-1-isopropyl-1H-pyrazole-4-sulfonamide]
15 nM	–	–	O=C(NC/C(F)=C1\CCCc2cnn(Cc3cnn(-c4ccccc4)c3)c21)NS(=O)(=O)c1cc(Cl)c(Cl)s1 [Compound #191, (Z)-4,5-dichloro-N-((2-fluoro-2-(1-((1-phenyl-1H-pyrazol-4-yl)methyl)-1,4,5,6-tetrahydro-7H-indazol-7-ylidene)ethyl)carbamoyl)thiophene-2-sulfonamide]
